Source: article PMC10620772, “Design, synthesis, and biological evaluation of new pyrimidine-5-carbonitrile derivatives as novel anti-cancer, dual EGFR^WT/COX-2 inhibitors with docking studies” (RSC Advances, 2023)
pIC50: −log10 of the molar value. Several values for one entry are separate records, joined by “and”; a condition that tells them apart may be missing. Equal values may be shown once. Entries after “also recorded” stand apart in the source; their conditions may differ.

Experiments:
Type in all cases: cell-based, human
TK-10 = assay: NCI60 antitumor screening
COLO 205 = assay: NCI60 antitumor screening
prostate cancer subpanel = assay: NCI60 five-dose, subpanel VIII
Source text: (§1) (2) The molar concentration of the compound responsible for total growth inhibition, also known as total growth inhibition (TGI).
(§2) Regarding subpanel selectivity toward certain cancer type, the method of determining a compound's selectivity index is to divide the full panel MG-MID (μM) value by each single subpanel. Values above six indicate high selectivity against the subpanel; moderate selectivity is denoted by values between three and six. Conversely, compounds are termed nonselective if their selectivity is less than three.[30,37]

breast cancer subpanel = assay: NCI60 five-dose, subpanel IX
Source text: as §1, §2

SR = assay: NCI60 antitumor screening
SK-MEL-28 = assay: NCI60 antitumor screening; conditions: Homo sapiens; 10 μM single dose; SK-MEL-28 (melanoma); read-out: growth inhibition percent (GI%)
SNB-19 = assay: NCI60 antitumor screening
SK-OV-3 = assay: NCI60 antitumor screening
RXF 393 = assay: NCI60 antitumor screening
LOX IMVI = assay: NCI60 antitumor screening
CAKI-1 = assay: NCI60 antitumor screening
SF-539 = assay: NCI60 antitumor screening
NCI/ADR-RES = assay: NCI60 antitumor screening
UACC-257 = assay: NCI60 antitumor screening
ACHN = assay: NCI60 antitumor screening
MCF7 = assay: NCI60 antitumor screening
melanoma subpanel = assay: NCI60 five-dose, subpanel V
Source text: as §1, §2

A498 = assay: NCI60 antitumor screening
SF-268 = assay: NCI60 antitumor screening
NCI-H322M = assay: NCI60 antitumor screening
Leukemia subpanel = assay: NCI60 five-dose, subpanel I
Source text: as §1, §2

NCI60 cell lines panel = assay: NCI60 antitumor screening, full panel
Method in brief: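 Percent growth inhibition (GI%) was recorded for each of the NCI60 lines, spanning leukaemia, lung, colon, CNS, melanoma, ovarian, renal, prostate and breast cancers, after exposure to compounds at one concentration, 10 μM.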

SK-MEL-5 = assay: NCI60 antitumor screening
HL-60(TB) = assay: NCI60 antitumor screening
colon cancer subpanel = assay: NCI60 five-dose, subpanel III
Source text: as §1, §2

MDA-MB-231/ATCC = assay: NCI60 antitumor screening; conditions: Homo sapiens; 10 μM single dose; MDA-MB-231/ATCC (breast cancer); read-out: growth inhibition percent (GI%)
OVCAR-8 = assay: NCI60 antitumor screening
[1] = full panel MG-MID / subpanel VIII
[2] = full panel MG-MID / subpanel IX
[3] = Homo sapiens, SF-539, five-dose
[4] = Homo sapiens, NCI-H322M, five-dose
[5] = full panel MG-MID / subpanel III

## N#Cc1c(-c2ccc(F)cc2)nc(SCc2ccc(F)cc2)nc1N1CCNCC1 [4f, 2-((4-Fluorobenzyl)thio)-4-(4-fluorophenyl)-6-(piperazin-1-yl) pyrimidine-5-carbonitrile]
TK-10; Homo sapiens, TK-10, five-dose
  GI50: 15 µM
  LC50: 58.8 µM
TK-10; Homo sapiens, 10 μM single dose, TK-10 (renal cancer), read-out: growth inhibition percent (GI%)
  inhibition at 10 µM: > 100%
TK-10; five-dose
  TGI: 29.70 µM
COLO 205; Homo sapiens, COLO 205
  pIC50: 5.74
COLO 205; Homo sapiens, COLO 205, five-dose
  GI50: 1.83 µM
COLO 205; Homo sapiens, COLO 205, five-dose, read-out: LC50 (the source's name)
  CC50: 6.34 µM
COLO 205; Homo sapiens, 10 μM single dose, COLO 205 (colon cancer), read-out: growth inhibition percent (GI%)
  inhibition at 10 µM: > 100%
COLO 205; five-dose
  TGI: 3.40 µM
Prostate cancer subpanel; Homo sapiens, subpanel VIII, read-out: MG-MID (GI50)
  GI50: 14.7 µM
Prostate cancer subpanel; [1]
  Selectivity index (GI50): 0.91
  Selectivity index (TGI): 0.89
Prostate cancer subpanel; subpanel VIII
  MG-MID (TGI): 29.50 µM
Breast cancer subpanel; Homo sapiens, subpanel IX, read-out: MG-MID (GI50)
  GI50: 11.8 µM
Breast cancer subpanel; [2]
  Selectivity index (GI50): 1.14
  Selectivity index (TGI): 0.98
Breast cancer subpanel; subpanel IX
  MG-MID (TGI): 26.88 µM
SR; Homo sapiens, SR, five-dose
  GI50: 2.18 µM
SR; Homo sapiens, SR, five-dose, read-out: LC50 (the source's name)
  CC50: 17.5 µM
SR; Homo sapiens, 10 μM single dose, SR (leukaemia), read-out: growth inhibition percent (GI%)
  inhibition at 10 µM: > 100%
SR; five-dose
  TGI: 5.07 µM
SK-MEL-28
  inhibition at 10 µM: > 100%
SNB-19; Homo sapiens, SNB-19, five-dose
  GI50: 14.9 µM
SNB-19; Homo sapiens, SNB-19, five-dose, read-out: LC50 (the source's name)
  CC50: 58.1 µM
SNB-19; Homo sapiens, 10 μM single dose, SNB-19 (CNS cancer), read-out: growth inhibition percent (GI%)
  inhibition at 10 µM: 50.4%
SNB-19; five-dose
  TGI: 29.40 µM
SK-OV-3; Homo sapiens, SK-OV-3, five-dose
  GI50: 16 µM
SK-OV-3; Homo sapiens, SK-OV-3, five-dose, read-out: LC50 (the source's name)
  CC50: 55.4 µM
SK-OV-3; Homo sapiens, 10 μM single dose, SK-OV-3 (ovarian cancer), read-out: growth inhibition percent (GI%)
  inhibition at 10 µM: 43.3%
SK-OV-3; five-dose
  TGI: 29.80 µM
RXF 393; Homo sapiens, RXF 393, five-dose, read-out: LC50 (the source's name)
  CC50: 51.5 µM
RXF 393; Homo sapiens, 10 μM single dose, RXF 393 (renal cancer), read-out: growth inhibition percent (GI%)
  inhibition at 10 µM: > 100%
RXF 393; five-dose
  TGI: 21.40 µM
LOX IMVI; Homo sapiens, LOX IMVI, five-dose
  GI50: 2.28 µM
LOX IMVI; Homo sapiens, LOX IMVI, five-dose, read-out: LC50 (the source's name)
  CC50: 22.7 µM
LOX IMVI; Homo sapiens, 10 μM single dose, LOX IMVI (melanoma), read-out: growth inhibition percent (GI%)
  inhibition at 10 µM: > 100%
LOX IMVI; five-dose
  TGI: 5.69 µM
CAKI-1; Homo sapiens, CAKI-1, five-dose
  GI50: 15.3 µM
CAKI-1; Homo sapiens, CAKI-1, five-dose, read-out: LC50 (the source's name)
  CC50: 54.6 µM
CAKI-1; Homo sapiens, 10 μM single dose, CAKI-1 (renal cancer), read-out: growth inhibition percent (GI%)
  inhibition at 10 µM: > 100%
CAKI-1; five-dose
  TGI: 29.00 µM
SF-539; [3]
  GI50: 15.6 µM
  LC50: 54.1 µM
SF-539; Homo sapiens, 10 μM single dose, SF-539 (CNS cancer), read-out: growth inhibition percent (GI%)
  inhibition at 10 µM: > 100%
SF-539; five-dose
  TGI: 29.00 µM
NCI/ADR-RES; Homo sapiens, NCI/ADR-RES, five-dose
  GI50: 13.7 µM
NCI/ADR-RES; Homo sapiens, NCI/ADR-RES, five-dose, read-out: LC50 (the source's name)
  CC50: 67.5 µM
NCI/ADR-RES; Homo sapiens, 10 μM single dose, NCI/ADR-RES (ovarian cancer), read-out: growth inhibition percent (GI%)
  inhibition at 10 µM: > 100%
NCI/ADR-RES; five-dose
  TGI: 30.40 µM
UACC-257; Homo sapiens, UACC-257, five-dose
  GI50: 14.8 µM
UACC-257; Homo sapiens, UACC-257, five-dose, read-out: LC50 (the source's name)
  CC50: 55.8 µM
UACC-257; Homo sapiens, 10 μM single dose, UACC-257 (melanoma), read-out: growth inhibition percent (GI%)
  inhibition at 10 µM: > 100%
UACC-257; five-dose
  TGI: 28.70 µM
ACHN; Homo sapiens, ACHN, five-dose
  GI50: 15 µM
  LC50: 54.5 µM
ACHN; Homo sapiens, 10 μM single dose, ACHN (renal cancer), read-out: growth inhibition percent (GI%)
  inhibition at 10 µM: > 100%
ACHN; five-dose
  TGI: 28.60 µM
MCF7; Homo sapiens, MCF7, five-dose
  GI50: 6.43 µM
MCF7; Homo sapiens, MCF7, five-dose, read-out: LC50 (the source's name)
  CC50: 50.1 µM
MCF7; Homo sapiens, 10 μM single dose, MCF7 (breast cancer), read-out: growth inhibition percent (GI%)
  inhibition at 10 µM: > 100%
MCF7; five-dose
  TGI: 20.20 µM
Melanoma subpanel; Homo sapiens, subpanel V, read-out: MG-MID (GI50)
  GI50: 13.9 µM
Melanoma subpanel; full panel MG-MID / subpanel V
  Selectivity index (GI50): 0.96
  Selectivity index (TGI): 1.00
Melanoma subpanel; subpanel V
  MG-MID (TGI): 26.43 µM
A498; Homo sapiens, A498, five-dose
  GI50: 15.3 µM
  LC50: 58.2 µM
A498; Homo sapiens, 10 μM single dose, A498 (renal cancer), read-out: growth inhibition percent (GI%)
  inhibition at 10 µM: < 10%
A498; five-dose
  TGI: 29.80 µM
SF-268; Homo sapiens, SF-268, five-dose
  GI50: 14.1 µM
SF-268; Homo sapiens, SF-268, five-dose, read-out: LC50 (the source's name)
  CC50: 67.5 µM
SF-268; Homo sapiens, 10 μM single dose, SF-268 (CNS cancer), read-out: growth inhibition percent (GI%)
  inhibition at 10 µM: 58.5%
SF-268; five-dose
  TGI: 30.90 µM
NCI-H322M; [4]
  GI50: 14 µM
  LC50 (50% lethal concentration): 52.8 µM
NCI-H322M; Homo sapiens, 10 μM single dose, NCI-H322M (non-small cell lung cancer), read-out: growth inhibition percent (GI%)
  inhibition at 10 µM: 64%
NCI-H322M; five-dose
  TGI: 27.20 µM
Leukemia subpanel; Homo sapiens, subpanel I, read-out: MG-MID (GI50)
  GI50: 7.63 µM
Leukemia subpanel; full panel MG-MID / subpanel I
  Selectivity index (GI50): 1.76
  Selectivity index (TGI): 1.21
Leukemia subpanel; subpanel I
  MG-MID (TGI): 21.84 µM
NCI60 cell lines panel; 10 μM
  One-dose activity over the NCI60 panel: lethal to most of cell lines; also recorded: Lethal to almost all NCI60 cell lines
NCI60 cell lines panel; Homo sapiens, 10 μM single dose, mean over NCI60 cell lines, read-out: Mean growth inhibition percent (GI%)
  inhibition at 10 µM: > 100%
NCI60 cell lines panel; Homo sapiens, average of all cell lines, read-out: Full panel MG-MID (GI50)
  GI50: 13.5 µM
NCI60 cell lines panel; average of all cell lines
  Full panel MG-MID (TGI): 26.45 μM and 26.45 ^e μM
SK-MEL-5; Homo sapiens, SK-MEL-5, five-dose
  GI50: 16.8 µM
SK-MEL-5; Homo sapiens, SK-MEL-5, five-dose, read-out: LC50 (the source's name)
  CC50: 55.4 µM
SK-MEL-5; Homo sapiens, 10 μM single dose, SK-MEL-5 (melanoma), read-out: growth inhibition percent (GI%)
  inhibition at 10 µM: > 100%
SK-MEL-5; five-dose
  TGI: 30.50 µM
HL-60(TB); Homo sapiens, HL-60, five-dose
  GI50: 7.66 µM
HL-60(TB); Homo sapiens, HL-60, five-dose, read-out: LC50 (the source's name)
  CC50: 63.8 µM
HL-60(TB); Homo sapiens, 10 μM single dose, HL-60(TB) (leukaemia), read-out: growth inhibition percent (GI%)
  inhibition at 10 µM: > 100%
HL-60(TB); five-dose
  TGI: 24.00 µM
Colon cancer subpanel; Homo sapiens, subpanel III, read-out: MG-MID (GI50)
  GI50: 7 µM
Colon cancer subpanel; [5]
  Selectivity index (GI50): 1.92
  Selectivity index (TGI): 1.54
Colon cancer subpanel; subpanel III
  MG-MID (TGI): 17.15 µM
MDA-MB-231/ATCC
  inhibition at 10 µM: > 100%
OVCAR-8; Homo sapiens, OVCAR-8, five-dose
  GI50: 13.2 µM
OVCAR-8; Homo sapiens, OVCAR-8, five-dose, read-out: LC50 (the source's name)
  CC50: 70.6 µM
OVCAR-8; Homo sapiens, 10 μM single dose, OVCAR-8 (ovarian cancer), read-out: growth inhibition percent (GI%)
  inhibition at 10 µM: > 100%
OVCAR-8; five-dose
  TGI: 30.50 µM
